# Reference: patent publication US20180193365A1, “USE OF HYDROGEN SULFIDE TO PREVENT LENS OPACIFICATION” (Creighton University, priority 2017, published 2018)
# “Also recorded” adds a separate entry of the source.
# How the values were obtained:
# cultured bovine lenses [1] = assay: H2O2-induced lens degradation/opacification in cultured bovine lenses (light transmittance, photographs); format: cell-based
# cultured bovine lenses [2] = assay: Lens degradation/opacification of DMEM-cultured bovine lenses (light transmittance, photographs); format: cell-based; conditions: 120 hours; for attenuation of light transmittance compared to untreated DMEM lenses (time=0 hours): 420 nm
# glutathione (GSH) = conditions: 50 mM; 120 hours
SMILES,"attenuation of H2O2-induced inhibition of light transmittance (cultured bovine lenses [1]; 3 mM, H2O2 50 mM, 120 hours) [%]","qualitative assessment of H2O2-induced lens opacity (photographs against grid) (cultured bovine lenses [1]; 3 mM, H2O2 50 mM, 120 hours)","protection from peroxide-induced lens degradation (cultured bovine lenses [1]; 10 mM, H2O2 50 mM, 120 hours)",attenuation of light transmittance compared to untreated DMEM lenses (time=0 hours) (cultured bovine lenses [2]; 3 mM) [%],attenuation of light transmittance compared to untreated DMEM lenses (time=0 hours) (cultured bovine lenses [2]; 10 mM) [%],qualitative assessment of lens opacity (photographs against grid) (cultured bovine lenses [2]; 10 mM),"decrease of light transmittance compared to DMEM-cultured lenses (time=0 hour) (cultured bovine lenses [1]; 50 mM, after 120 hours) [%]",attenuation of GSH content compared to untreated lenses (time=0 hours) (glutathione (GSH)) [%]
O=C1O[C@H]([C@@H](O)CO)C(O)=C1O [ascorbic acid],9.22,protected lenses from peroxide-induced degradation,failed to protect,60.57,57.42,accelerated the degradation process; also recorded: accelerated lens degradation; also recorded: accelerated clouding of the lens,–,–
"OO [H2O2, hydrogen peroxide]",–,–,–,–,–,–,36.76,82.56
